Results published in patent US10532106B2 (priority 2014, dated 2020).
“Also recorded” adds a separate entry of the source. Where two headings read alike, the source gives them in different places. Numbered stars: 1 amine (or outer) side, 2 acyl side, 3 side chain; on linkers, the order of the positions; unused ones are H or OH. Bridge positions count the residues as written; N and C are the ends. Square brackets hold non-standard residues; d marks the D form. Peptide text beside a SMILES is read from it. * marks the point of attachment. X1 = COc1cc2cc(c1Cl)N(C)C(=O)C[C@H](OC(=O)[C@H](C)N(C)C(=O)CCC(C)(C)SSCCCC(=O)*)[C@]1(C)O[C@H]1[C@H](C)[C@@H]1C[C@@](O)(NC(=O)O1)[C@H](OC)/C=C/C=C(\C)C2; X2 = COc1cc2cc(c1Cl)N(C)C(=O)C[C@H](OC(=O)[C@H](C)N(C)C(=O)CCC(C)SSC(C)CCC(=O)*)[C@]1(C)O[C@H]1[C@H](C)[C@@H]1C[C@@](O)(NC(=O)O1)[C@H](OC)/C=C/C=C(\C)C2; X3 = COc1cc2cc(c1Cl)N(C)C(=O)C[C@H](OC(=O)[C@H](C)N(C)C(=O)CCSSCCCC(=O)*)[C@]1(C)O[C@H]1[C@H](C)[C@@H]1C[C@@](O)(NC(=O)O1)[C@H](OC)/C=C/C=C(\C)C2; 1Nal = N[C@@H](Cc1cccc2ccccc12)C(=O)O; TBMB = c1c(C[*:1])cc(C[*:3])cc1C[*:2]; Tle = CC(C)(C)[C@H](N)C(=O)O; βAla = NCCC(=O)O; Sar = CNCC(=O)O

Key:
[1] = target: T1, hemopexin domain of MT1-MMP (Homo sapiens, UniProt P50281); test: Hemopexin binding assay using the alpha screen; conditions: qualitative
T1 construct: residues Cys319-Gly511 from the human gene; His6 (N); made in house; host or cells: HEK293 (transient), pEXPR-IBA42 vector
Description: Employing previously established methods for generating bicyclic peptide phage libraries, selections were performed against the human hemopexin domain of MT1-MMP.
The most frequently occurring sequences were assayed for Hemopexin binding using the alpha screen, where all signals were high compared to the original 17-69 sequence (see Table 1 and FIG. 14): […]

[2] = Plasma stability, quantitative LC-MS (Method #2); assay type: in vitro ADME, human; conditions: for t1/2 (hrs) (human plasma): Table 16, incubation up to 24 hrs, 4 μM; for degradation half-life in human plasma: refers to Table 16
Description: (§1) […] […] Prior to LC-MS analysis, samples were defrosted, and mixed with 3 volumes (here, 120 μL) of 1:1 acetonitrile/MeOH water. The milky suspensions were centrifuged for 30 min at 13000 rpm, and peptide-containing supernatants were quantitated for doubly/triply charged species and MS/MS fragments thereof using a Waters Xevo TQ-D instrument, while using a plasma extracted standard curve of the same peptides as a reference. The half-life of degradation in plasma was used to assess the comparative stability of the molecules.

[3] = Plasma stability, quantitative LC-MS; assay type: in vitro ADME, rat; conditions: Table 16; incubation up to 24 hrs, 4 μM
MT1-MMP hemopexin domain = target: T2, MT1-MMP hemopexin domain (Homo sapiens, UniProt P50281); test: Competition assay using fluorescence polarisation; assay type: binding
T2 construct: residues Cys319-Gly511 from the human gene; His6 (N); made in house; host or cells: HEK293 (transient), pEXPR-IBA42 vector
Procedure, shortened: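 Pre-formed PEX–fluorescent tracer complex titrated with non-fluoresceinated bicyclic peptide, which displaces tracer and lowers fluorescence polarisation. Competitor Kd obtained by fitting to the cubic-equation solution for tracer/titrant/protein equilibria, using tracer Kd from separate direct-binding FP.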

[4] = Plasma stability, quantitative LC-MS (Method #2); assay type: in vitro ADME, mouse; conditions: Table 16; incubation up to 24 hrs, 4 μM
Description: as §1

[5] = Relative stability to DTT of Bicycle Drug Conjugates, quantitative LC-MS; assay type: physicochemical; conditions: Bicycle Drug Conjugates containing the disulphide linker
Description: The four BDCs were assessed for several in vitro parameters such as retention of potency to the human MT1-MMP hemopexin domain, stability in ex vivo mouse, rat and human plasma, and stability to reducing agents such as dithiothreitol.

[6] = test system: human lung squamous cell carcinoma line EBC-1; test: Efficacy in EBC-1 xenograft mice; assay type: in vivo, mouse
Description: All BDCs containing the stabilised bicycle core sequence were tested for their efficacies in in vivo mouse xenograft models, using the human lung squamous cell carcinoma line EBC-1.
The area under the curve (AUC) of tumour volume over time and BDC was taken and plotted against the corresponding dose group (FIG. 13).

[7] = cited from earlier work; for reduction in sensitivity to a reducing agent such as dithiothreitol (compared to the non-hindered disulphide): in the antibody drug conjugate context; for Relative Stability to DTT (ADC): values relate to antibody drug conjugates containing the disulphide linker
[8] = plasma samples from mice dosed intravenously (0.5, 1 and 2 hrs); conditions: male CD1 mice, up to 2 hrs
[9] = plasma samples taken at t=0.5, 1 and 2 hrs from intravenously dosed mice; conditions: male CD1 mice, up to 2 hrs
rat plasma = conditions: up to 24 hrs
human plasma = conditions: up to 24 hrs
mouse plasma = conditions: up to 24 hrs
[10] = test system: HT-1080 xenograft tumours; test: Efficacy in HT-1080 xenograft mice; assay type: in vivo, mouse; conditions: HT1080 xenograft
Description: Balb/c nude mice bearing subcutaneous HT-1080 xenograft tumours were treated with BDCs or vehicle (PBS). BDCs were dosed 3 times weekly for 2 weeks, dosing initiated when tumours measured approx. 150-200 mm^3. Mice were monitored, and measurements of tumour volume and body weight recorded 3 times a week.

[11] = Table 16, footnote e: 17-69-07-N004 as tracer in FP competition, read-out: Kd (nM) (Hemopexin domain)

CC[C@H](C)[C@@H]1NC(=O)[C@H](CC(=O)O)NC(=O)[C@H](Cc2ccc(O)cc2)NC(=O)[C@H](Cc2ccccc2)NC(=O)[C@H](CC(=O)O)NC(=O)[C@H](CCC(=O)O)NC(=O)[C@@H]2CSCc3cc(cc(c3)CSC[C@H](N)C(=O)N[C@@H](CCCCN)C(=O)N[C@@H](CC(N)=O)C(=O)N[C@@H](CCCNC(=N)N)C(=O)NCC(=O)N[C@@H](Cc3ccccc3)C(=O)NCC(=O)N2)CSC[C@@H](C(N)=O)NC1=O [Peptide 17-69] (H-CKNRGFGCEDFYDIC-NH2; linker 1-8-15 via TBMB)
alpha screen binding signal [1]: qualitative binding to the target was verified

C[C@H](NC(=O)CN(C)C(=O)CN(C)C(=O)CN(C)C(=O)CN(C)C(=O)CN(C)C(=O)CN(C)C(=O)CN(C)C(=O)CN(C)C(=O)CN(C)C(=O)CN(C)C(=O)CCN)C(=O)N[C@H]1CSCc2cc3cc(c2)CSC[C@H](NC(=O)[C@@H](C)NC(=O)[C@H](Cc2cccc4ccccc24)NC(=O)[C@H](CCC(=O)O)NC(=O)[C@H](CC(N)=O)NC(=O)[C@@H](C)NC1=O)C(=O)N[C@@H](CCC(=O)O)C(=O)N[C@@H](CC(=O)O)C(=O)N[C@@H](Cc1ccccc1)C(=O)N[C@@H](Cc1ccc(O)cc1)C(=O)N[C@@H](CC(=O)O)C(=O)N[C@@H](C(C)(C)C)C(=O)N[C@H](C(N)=O)CSC3 [17-69-07-N241, bAla-Sar10-A-(17-69-07) D-Ala1 1Nal4 D-Ala5 tBuGly11] (H-[βAla][Sar][Sar][Sar][Sar][Sar][Sar][Sar][Sar][Sar][Sar]AC[dA]NE[1Nal][dA]CEDFYD[Tle]C-NH2; linker 13-19-26 via TBMB)
t1/2 (hrs) (human plasma) [2]: >36 h | t1/2 (hrs) (rat plasma) [3]: >36 h | Kd (MT1-MMP hemopexin domain; Table 12, molecules selected for plasma stability assessment, read-out: Kd): 1.21 ± 0.24 nM | Kd (MT1-MMP hemopexin domain; [11]): 1.4 ± 0.3 nM | species cross-reactivity (MT1-MMP hemopexin domain; murine, dog, cynomolgus and human MT1-MMP): fully cross reactive | t1/2 (hrs) (mouse plasma) [4]: >36 h

COc1cc2cc(c1Cl)N(C)C(=O)C[C@H](OC(=O)[C@H](C)N(C)C(=O)CCC(C)SSC(C)CCC(=O)NCCC(=O)N(C)CC(=O)N(C)CC(=O)N(C)CC(=O)N(C)CC(=O)N(C)CC(=O)N(C)CC(=O)N(C)CC(=O)N(C)CC(=O)N(C)CC(=O)N(C)CC(=O)N[C@@H](C)C(=O)N[C@H]1CSCc3cc4cc(c3)CSC[C@H](NC(=O)[C@@H](C)NC(=O)[C@H](Cc3cccc5ccccc35)NC(=O)[C@H](CCC(=O)O)NC(=O)[C@H](CC(N)=O)NC(=O)[C@@H](C)NC1=O)C(=O)N[C@@H](CCC(=O)O)C(=O)N[C@@H](CC(=O)O)C(=O)N[C@@H](Cc1ccccc1)C(=O)N[C@@H](Cc1ccc(O)cc1)C(=O)N[C@@H](CC(=O)O)C(=O)N[C@@H](C(C)(C)C)C(=O)N[C@H](C(N)=O)CSC4)[C@]1(C)O[C@H]1[C@H](C)[C@@H]1C[C@@](O)(NC(=O)O1)[C@H](OC)/C=C/C=C(\C)C2 (stereo partly drawn) [BT17BDC-20] ({X2-βAla}-[Sar][Sar][Sar][Sar][Sar][Sar][Sar][Sar][Sar][Sar]AC[dA]NE[1Nal][dA]CEDFYD[Tle]C-NH2; linker 12-18-25 via TBMB)
Relative Stability to DTT (BDC) [5]: 93 | t1/2 (hrs) (human plasma) [2]: 32 ± 1 h | degradation half-life in human plasma [2]: > 14 h | efficacy, tumour clearance [6]: not efficacious and only caused a marginal reduction in tumour sizes | tolerability, body weight [6]: tolerated based on constant weight | t1/2 (hrs) (rat plasma) [3]: 34 ± 4 h | Kd (MT1-MMP hemopexin domain; Table 16, footnote f: 17-69-07-N040 as tracer in FP competition, read-out: Kd (nM) (Hemopexin domain)): 2.95 ± 1.3 nM | reduction in sensitivity to a reducing agent such as dithiothreitol (compared to the non-hindered disulphide) [7]: 170 fold | Relative Stability to DTT (ADC) [7]: 170 | t1/2 (hrs) (mouse plasma) [4]: >36 h

Ac-CYNEFGCEDFYDIC
fragment found [8]: excision of YNEFG in loop 1 (entire loop removed); also recorded: excision of EDFYDI in loop 2 (entire loop removed), minor | fragment found [9]: excision of YNE in loop 1, major; also recorded: excision of YNEF in loop 1; also recorded: excision of YNEFG in loop 1 (the entire loop is removed); also recorded: excision of YD in loop 2, minor; also recorded: excision of FYD in loop 2, minor; also recorded: excision of YDI in loop 2, minor; also recorded: excision of EDFYDI in loop 2 (the entire loop is removed), minor

βAla-Sar10-A-C(D-Ala)NE(1Nal)(D-Ala)CEDFYD(tBuGly)C
not cleaved (rat plasma): stable; t1/2 >36 hrs (rat plasma) | not cleaved (human plasma): stable; t1/2 >36 hrs (human plasma) | not cleaved (mouse plasma): stable; t1/2 >36 hrs (mouse plasma)

CC[C@H](C)[C@@H]1NC(=O)[C@H](CC(=O)O)NC(=O)[C@H](Cc2ccc(O)cc2)NC(=O)[C@H](Cc2ccccc2)NC(=O)[C@H](CC(=O)O)NC(=O)[C@H](CCC(=O)O)NC(=O)[C@@H]2CSCc3cc(cc(c3)CSC[C@H](NC(=O)[C@H](C)NC(=O)CN(C)C(=O)CN(C)C(=O)CN(C)C(=O)CN(C)C(=O)CN(C)C(=O)CN(C)C(=O)CN(C)C(=O)CN(C)C(=O)CN(C)C(=O)CN(C)C(=O)CNC(=O)CCCSSCCC(=O)N(C)[C@@H](C)C(=O)O[C@H]3CC(=O)N(C)c4cc(cc(OC)c4Cl)C/C(C)=C/C=C/[C@@H](OC)[C@@]4(O)C[C@H](OC(=O)N4)[C@@H](C)[C@@H]4O[C@@]34C)C(=O)N[C@@H](Cc3ccc(O)cc3)C(=O)N[C@@H](CC(N)=O)C(=O)N[C@@H](CCC(=O)O)C(=O)N[C@@H](Cc3ccccc3)C(=O)NCC(=O)N2)CSC[C@@H](C(N)=O)NC1=O [BT17BDC-9] (X3-G[Sar][Sar][Sar][Sar][Sar][Sar][Sar][Sar][Sar][Sar]ACYNEFGCEDFYDIC-NH2; linker 13-19-26 via TBMB)
weight of the animals [10]: largely stable | tumour volume ([10]; compared to vehicle control, listed as BDC17BDC-9): significant reduction in tumour volume after 9 days post injection; also recorded: Tumours were completely cleared by day 14

COc1cc2cc(c1Cl)N(C)C(=O)C[C@H](OC(=O)[C@H](C)N(C)C(=O)CCC(C)(C)SSCCCC(=O)NCCC(=O)N(C)CC(=O)N(C)CC(=O)N(C)CC(=O)N(C)CC(=O)N(C)CC(=O)N(C)CC(=O)N(C)CC(=O)N(C)CC(=O)N(C)CC(=O)N(C)CC(=O)N[C@@H](C)C(=O)N[C@H]1CSCc3cc4cc(c3)CSC[C@H](NC(=O)[C@@H](C)NC(=O)[C@H](Cc3cccc5ccccc35)NC(=O)[C@H](CCC(=O)O)NC(=O)[C@H](CC(N)=O)NC(=O)[C@@H](C)NC1=O)C(=O)N[C@@H](CCC(=O)O)C(=O)N[C@@H](CC(=O)O)C(=O)N[C@@H](Cc1ccccc1)C(=O)N[C@@H](Cc1ccc(O)cc1)C(=O)N[C@@H](CC(=O)O)C(=O)N[C@@H](C(C)(C)C)C(=O)N[C@H](C(N)=O)CSC4)[C@]1(C)O[C@H]1[C@H](C)[C@@H]1C[C@@](O)(NC(=O)O1)[C@H](OC)/C=C/C=C(\C)C2 [BT17BDC-19] ({X1-βAla}-[Sar][Sar][Sar][Sar][Sar][Sar][Sar][Sar][Sar][Sar]AC[dA]NE[1Nal][dA]CEDFYD[Tle]C-NH2; linker 12-18-25 via TBMB)
Relative Stability to DTT (BDC) [5]: 30 | degradation half-life in human plasma [2]: > 14 h | efficacy, tumour clearance [6]: efficacious and cleared tumours in 9 days | tolerability, body weight [6]: well tolerated at efficacious doses | t1/2 (hrs) (rat plasma) [3]: >36 h | Kd (MT1-MMP hemopexin domain; [11]): 0.5 nM | reduction in sensitivity to a reducing agent such as dithiothreitol (compared to the non-hindered disulphide) [7]: 14 fold | Relative Stability to DTT (ADC) [7]: 14 | t1/2 (hrs) (mouse plasma) [4]: >36 h
